# Active and inactive are the calls of the source.
# Experiments:
# [1] = NIH-3T3 fibroblast cytotoxicity, dose response, cytotoxicity control, cell-based, fluorescence, Alamar Blue, secondary assay (AID 2327); assay type: functional;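 note: NIH-3T3 mouse fibroblasts cultured with fluconazole at 8 µg/mL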
# [2] = fluconazole-exposed Candida albicans growth modulators – fluorescence, retest, confirmation (AID 2467); assay type: functional, cell-based
# [3] = biological target: T1, Rac GTPase-activating protein 1 (Homo sapiens, UniProt Q9H0H5); assay: blockers of MgcRacGAP-driven Rac1 GTP hydrolysis – biochemical, ADP Hunter fluorescence, primary and confirmatory, confirmation (AID 624330); assay type: functional
# T1 sequence (Q9H0H5 whole entry): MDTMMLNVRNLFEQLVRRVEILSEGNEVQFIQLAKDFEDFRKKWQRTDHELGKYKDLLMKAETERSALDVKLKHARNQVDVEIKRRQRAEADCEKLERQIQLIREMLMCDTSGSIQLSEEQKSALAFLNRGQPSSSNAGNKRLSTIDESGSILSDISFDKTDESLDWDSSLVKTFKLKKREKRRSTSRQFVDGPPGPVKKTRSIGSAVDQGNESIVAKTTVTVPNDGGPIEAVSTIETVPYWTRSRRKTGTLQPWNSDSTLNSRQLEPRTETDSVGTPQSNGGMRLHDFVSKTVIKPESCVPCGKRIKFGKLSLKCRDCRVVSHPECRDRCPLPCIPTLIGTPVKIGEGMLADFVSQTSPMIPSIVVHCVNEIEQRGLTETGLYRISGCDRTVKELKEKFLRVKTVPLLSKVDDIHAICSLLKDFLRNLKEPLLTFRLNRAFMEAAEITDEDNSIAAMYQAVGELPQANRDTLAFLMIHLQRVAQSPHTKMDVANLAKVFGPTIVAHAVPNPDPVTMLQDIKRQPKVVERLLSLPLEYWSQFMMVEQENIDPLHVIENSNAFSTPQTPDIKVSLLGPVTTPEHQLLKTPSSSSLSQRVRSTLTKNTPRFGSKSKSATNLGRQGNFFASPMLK
# Cytochrome P450 1A2 = biological target: T2, Cytochrome P450 1A2 (Homo sapiens, UniProt P05177);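 note: PubChem cytochrome P450 panel assay, CYP1A2 panel member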
# T2 sequence (P05177 whole entry): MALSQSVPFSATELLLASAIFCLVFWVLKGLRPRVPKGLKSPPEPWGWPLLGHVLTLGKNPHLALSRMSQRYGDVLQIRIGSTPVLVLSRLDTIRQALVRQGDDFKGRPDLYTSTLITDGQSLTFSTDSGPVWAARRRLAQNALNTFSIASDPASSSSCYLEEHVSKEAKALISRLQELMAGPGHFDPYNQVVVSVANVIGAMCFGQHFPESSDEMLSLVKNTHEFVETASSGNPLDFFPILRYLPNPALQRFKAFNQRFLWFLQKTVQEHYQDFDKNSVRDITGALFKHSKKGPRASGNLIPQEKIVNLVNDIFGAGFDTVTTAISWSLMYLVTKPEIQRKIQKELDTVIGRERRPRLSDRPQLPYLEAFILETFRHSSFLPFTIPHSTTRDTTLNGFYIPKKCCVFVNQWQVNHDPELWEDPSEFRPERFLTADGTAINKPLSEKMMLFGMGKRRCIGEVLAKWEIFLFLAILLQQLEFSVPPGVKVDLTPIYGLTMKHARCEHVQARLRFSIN
# Cytochrome P450 2C9 = Cytochrome P450 2C9 (Homo sapiens, UniProt P11712)
# [4] = Luminescence Cell-Based Dose Confirmation HTS to Identify Activators of 5'UTR Stem-Loop Driven Alpha-Synuclein mRNA Translation in H4 Neuroglioblastoma Cells. [Related pubchem assays: 1829 (Project Summary), 1814 (Primary HTS)]; assay type: functional
# [5] = Luminescence Cell-Based Dose Response HTS to Identify Activators of Luciferase Translation or Activity in H4 […] Cells. [Related pubchem assays: 1829 (Project Summary), 1814 (Primary HTS)]; assay type: functional
# H4 = assay: Luminescence Cell-Based Dose Response HTS to Identify Activators of 5'UTR Stem-Loop Driven Prion Protein mRNA Translation in H4 Neuroglioblastoma Cells. [Related pubchem assays: 1829 (Project Summary), 1814 (Primary HTS)]; assay type: functional; settings: Homo sapiens
# cells = assay type: functional
# [6] = Luminescence Cell-Based Dose Retest to Confirm Inhibitors of Cancer Stem Cells. [Related pubchem assays (depositor defined):AID2717, AID2721]; assay type: functional; settings: Homo sapiens
# [7] = biological target: T3, Replicative DNA helicase DnaB (Mycobacterium tuberculosis, UniProt P9WMR3); assay: DnaB intein splicing inhibitors, dose response, biochemical, cell-free fluorescence (AID 449749); assay type: functional
# T3 sequence (P9WMR3 whole entry): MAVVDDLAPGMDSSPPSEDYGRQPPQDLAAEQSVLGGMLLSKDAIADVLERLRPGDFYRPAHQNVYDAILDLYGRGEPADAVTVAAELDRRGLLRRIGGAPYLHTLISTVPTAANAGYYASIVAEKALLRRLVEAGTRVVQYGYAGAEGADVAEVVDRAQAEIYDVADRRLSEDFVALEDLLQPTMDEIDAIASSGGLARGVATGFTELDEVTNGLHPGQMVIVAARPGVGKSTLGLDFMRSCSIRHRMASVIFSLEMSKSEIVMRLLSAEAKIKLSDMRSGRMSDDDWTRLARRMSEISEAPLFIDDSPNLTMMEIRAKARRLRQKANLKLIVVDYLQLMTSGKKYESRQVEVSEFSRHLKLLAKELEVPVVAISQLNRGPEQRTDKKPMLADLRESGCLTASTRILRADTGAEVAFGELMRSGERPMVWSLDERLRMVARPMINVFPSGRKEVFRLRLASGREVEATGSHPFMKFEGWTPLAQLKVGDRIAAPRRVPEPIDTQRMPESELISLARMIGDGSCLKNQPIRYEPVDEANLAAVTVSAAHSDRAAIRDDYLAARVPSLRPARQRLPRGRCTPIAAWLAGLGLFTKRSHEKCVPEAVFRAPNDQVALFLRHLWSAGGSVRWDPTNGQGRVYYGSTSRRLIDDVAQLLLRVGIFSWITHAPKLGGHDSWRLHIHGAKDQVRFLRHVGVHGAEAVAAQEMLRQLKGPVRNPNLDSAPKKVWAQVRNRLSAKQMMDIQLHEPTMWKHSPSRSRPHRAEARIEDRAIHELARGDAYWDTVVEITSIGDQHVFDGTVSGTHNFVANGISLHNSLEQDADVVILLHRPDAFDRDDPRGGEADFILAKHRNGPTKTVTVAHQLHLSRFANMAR
# Protein RecA = biological target: T4, Protein RecA (Mycobacterium tuberculosis, UniProt P9WHJ3); assay: Fluorescence Cell-Free Homogeneous Dose Retest to Identify Inhibitors of RecA-Intein Splicing Activity. [Related pubchem assays (depositor defined):AID2097, AID2223, AID489010, AID492950]; assay type: functional
# T4 sequence (P9WHJ3 whole entry): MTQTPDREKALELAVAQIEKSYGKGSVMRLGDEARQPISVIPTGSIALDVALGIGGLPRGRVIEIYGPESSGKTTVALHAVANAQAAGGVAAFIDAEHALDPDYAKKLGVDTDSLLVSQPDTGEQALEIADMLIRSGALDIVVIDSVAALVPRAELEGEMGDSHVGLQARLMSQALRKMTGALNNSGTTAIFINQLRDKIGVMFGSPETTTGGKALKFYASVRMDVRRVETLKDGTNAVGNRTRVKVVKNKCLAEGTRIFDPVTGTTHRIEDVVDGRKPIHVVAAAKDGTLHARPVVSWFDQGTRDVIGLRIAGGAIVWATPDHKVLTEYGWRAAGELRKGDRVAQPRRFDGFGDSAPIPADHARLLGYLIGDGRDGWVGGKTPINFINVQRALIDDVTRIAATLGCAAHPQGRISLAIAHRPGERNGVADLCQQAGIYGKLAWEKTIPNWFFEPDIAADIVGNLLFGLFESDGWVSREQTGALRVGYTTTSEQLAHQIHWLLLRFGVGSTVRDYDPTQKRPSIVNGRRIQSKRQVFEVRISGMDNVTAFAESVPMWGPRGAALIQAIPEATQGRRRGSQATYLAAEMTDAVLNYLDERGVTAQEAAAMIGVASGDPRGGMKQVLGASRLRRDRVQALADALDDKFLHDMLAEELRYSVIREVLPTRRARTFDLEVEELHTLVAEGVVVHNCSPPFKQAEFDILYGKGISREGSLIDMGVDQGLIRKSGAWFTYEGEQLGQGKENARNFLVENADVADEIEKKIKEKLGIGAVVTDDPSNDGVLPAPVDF
# Cytochrome P450 2C19 = Cytochrome P450 2C19 (Homo sapiens, UniProt P33261); assay: Cytochrome panel assay with activity outcomes. Panel member name: p450-cyp2c19 Compounds with AC50 equal or less than 10 uM are considered active; assay type: functional; settings: read-out: AC50
# Cytochrome P450 3A4 = Cytochrome P450 3A4 (Homo sapiens, UniProt P08684);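 note: CYP3A4 tested as one member of a cytochrome P450 panel screen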
# Chain of Cytochrome P450 3A4 (P08684 whole entry): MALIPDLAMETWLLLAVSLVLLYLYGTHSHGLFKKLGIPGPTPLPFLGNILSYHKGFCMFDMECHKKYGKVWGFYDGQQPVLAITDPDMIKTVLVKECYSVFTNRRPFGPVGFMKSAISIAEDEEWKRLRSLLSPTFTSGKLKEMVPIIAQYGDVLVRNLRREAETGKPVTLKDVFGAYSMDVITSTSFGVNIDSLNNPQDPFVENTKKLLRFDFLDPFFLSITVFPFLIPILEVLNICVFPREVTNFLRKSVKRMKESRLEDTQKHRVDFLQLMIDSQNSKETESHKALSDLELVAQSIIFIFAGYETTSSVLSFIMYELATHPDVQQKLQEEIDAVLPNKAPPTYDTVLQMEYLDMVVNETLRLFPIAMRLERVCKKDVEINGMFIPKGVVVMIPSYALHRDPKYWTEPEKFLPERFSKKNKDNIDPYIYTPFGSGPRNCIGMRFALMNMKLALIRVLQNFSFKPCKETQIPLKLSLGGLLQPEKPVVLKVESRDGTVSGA
# Chain of Cytochrome P450 2C9 (P11712 whole entry): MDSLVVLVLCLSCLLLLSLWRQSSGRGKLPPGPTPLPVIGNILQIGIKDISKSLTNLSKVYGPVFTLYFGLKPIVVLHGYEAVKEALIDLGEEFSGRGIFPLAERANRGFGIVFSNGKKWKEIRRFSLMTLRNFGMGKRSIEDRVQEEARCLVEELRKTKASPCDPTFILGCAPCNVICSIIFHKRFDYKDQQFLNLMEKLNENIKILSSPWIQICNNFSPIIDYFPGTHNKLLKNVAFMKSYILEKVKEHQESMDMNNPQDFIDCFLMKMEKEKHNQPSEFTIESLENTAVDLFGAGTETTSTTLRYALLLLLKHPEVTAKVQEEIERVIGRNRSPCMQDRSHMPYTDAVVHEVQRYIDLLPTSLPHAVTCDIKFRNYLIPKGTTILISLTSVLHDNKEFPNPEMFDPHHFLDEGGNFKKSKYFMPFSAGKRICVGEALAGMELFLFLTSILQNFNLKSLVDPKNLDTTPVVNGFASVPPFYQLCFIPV
# Chain of Cytochrome P450 2C19 (P33261 whole entry): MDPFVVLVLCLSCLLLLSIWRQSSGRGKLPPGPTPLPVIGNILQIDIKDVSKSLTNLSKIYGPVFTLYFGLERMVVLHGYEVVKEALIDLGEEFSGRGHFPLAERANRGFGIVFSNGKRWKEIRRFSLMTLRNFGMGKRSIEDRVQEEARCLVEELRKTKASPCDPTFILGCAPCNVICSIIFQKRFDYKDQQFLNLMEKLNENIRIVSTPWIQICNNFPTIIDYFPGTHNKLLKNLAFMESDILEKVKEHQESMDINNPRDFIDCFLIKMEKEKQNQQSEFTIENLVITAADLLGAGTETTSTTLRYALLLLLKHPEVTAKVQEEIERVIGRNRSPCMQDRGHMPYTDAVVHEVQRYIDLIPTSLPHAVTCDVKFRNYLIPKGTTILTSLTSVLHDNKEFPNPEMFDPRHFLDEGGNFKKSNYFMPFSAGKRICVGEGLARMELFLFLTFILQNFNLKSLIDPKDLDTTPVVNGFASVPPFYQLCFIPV
smiles,measurement,setting,value
O=C(Cn1c2ccc(F)cc2c2nc3n(c(=O)c21)CCS3)N1CCCC1,EC50,[1],> 160 µM (inactive)
same,EC50,[2],0.66 µM (active)
COC(=O)c1cc(NCc2cccs2)ccc1N1CCOCC1,IC50,[3],135 µM (active)
O=c1c(-c2ccccc2)nc2cnc(N3CCOCC3)nc2n1Cc1ccc(F)cc1,AC50,Cytochrome P450 1A2,20 µM (inconclusive)
same,AC50,Cytochrome P450 2C9,15.8 µM (inconclusive)
Cc1ccc(-c2cc(C(=O)N3CCCc4ccccc43)no2)cc1,EC50,[4],52.4 µM (active)
same,EC50,[5],> 120 µM (not active)
same,EC50,H4,11.8 µM (active)
O=C(Nc1nnc(-c2ccccn2)o1)c1ccc(Br)cc1,EC50,[1],18.3 µM (inconclusive)
same,EC50,[2],> 38 µM (not active)
Cc1ccc(NC(=O)CCNCc2ccco2)cc1S(=O)(=O)N(C)C,IC50,[3],229 µM (active)
O=[N+]([O-])c1ccc(N2CCN(Cc3ccc([N+](=O)[O-])o3)CC2)cc1,EC50,[1],> 150 µM (inactive)
same,EC50,[2],> 38 µM (not active)
same,IC50,cells,< 100 nM (active)
O=c1c(CCc2ccccc2)nc2cnc(N3CCOCC3)nc2n1CCc1ccccc1,AC50,Cytochrome P450 1A2,25.1 µM (inconclusive)
same,AC50,Cytochrome P450 2C9,2 µM (inconclusive)
N=c1n(CCN2CCOCC2)c2ccccc2n1CC(=O)c1ccc(Cl)c(Cl)c1,EC50,[4],> 120 µM (not active)
same,EC50,[5],> 120 µM (not active)
same,EC50,H4,41.8 µM (inconclusive)
Cc1cc(C)c(C)c(S(=O)(=O)N2CCN(c3ccc(O)cc3)CC2)c1C,AC50,[6],8.83 µM (active)
same,IC50,[3],85.9 µM (active)
Cc1ccc(CNC(=O)CCN2C(=O)[C@@H]3Cc4ccccc4CN3C2=O)cc1,AC50,[7],373 µM (active)
same,EC50,Protein RecA,> 380 µM (inactive)
CC1(S(=O)(=O)O)CC(=O)c2ccccc2C1=O (stereo not given),AC50,[7],5.26 µM (active)
same,EC50,Protein RecA,3.03 µM (active)
CCCCC(=O)NC(c1cccc([N+](=O)[O-])c1)c1c(OC(C)=O)ccc2ccccc12 (stereo not given),AC50,[7],41.6 µM (active)
same,EC50,Protein RecA,25.4 µM (active)
O=[N+]([O-])/C(C(Cl)=C(Cl)Cl)=C(/Sc1ccccc1)N1CCCCC1,AC50,[7],3.88 µM (active)
same,EC50,Protein RecA,7.05 µM (active)
Cc1cccc2cc(C#N)c(SCc3nnc(-c4ccccc4[N+](=O)[O-])o3)nc12,EC50,[4],> 120 µM (not active)
same,EC50,[5],75.4 µM (active)
same,EC50,H4,18.4 µM (active)
O=C(CN1C(=O)S/C(=C\C=C\c2ccccc2)C1=O)Nc1cccc(O)c1,EC50,[4],16.4 µM (active)
same,EC50,[5],40.1 µM (active)
same,EC50,H4,49.2 µM (active)
O=C(Nc1cccc(OC(=O)c2ccc(Br)o2)c1)c1ccccc1,AC50,[7],0.0485 µM (inconclusive)
same,EC50,Protein RecA,9.2 µM (active)
CCCc1n[nH]c2c1C(c1ccc(O)c(OC)c1)C(C#N)=C(N)O2 (stereo not given),AC50,[7],57.1 µM (active)
same,EC50,Protein RecA,8.18 µM (active)
COC(=O)C1C(=O)C=C(Nc2ccc(F)cc2F)CC1c1ccccc1 (stereo not given),EC50,[4],> 120 µM (not active)
same,EC50,[5],95.6 µM (active)
same,EC50,H4,17.6 µM (active)
COc1ccccc1C(OC(=O)c1cccs1)C(=O)NCC1CCCO1 (stereo not given),AC50,Cytochrome P450 2C19,5.01 µM (inconclusive)
same,AC50,Cytochrome P450 1A2,14.1 µM (inconclusive)
same,AC50,Cytochrome P450 3A4,25.1 µM (inconclusive)
same,AC50,Cytochrome P450 2C9,14.1 µM (inconclusive)
O=C(c1cc(-c2cccc(Cl)c2)on1)N1CCOCC1,EC50,[4],4.22 µM (active)
same,EC50,[5],26.4 µM (active)
same,EC50,H4,21.1 µM (active)
Cc1ccc(C(C)(C)NC(=O)C2CCC(=O)N(C3CCCCCC3)C2)cc1 (stereo not given),EC50,[4],83.3 µM (active)
same,EC50,[5],10.2 µM (active)
same,EC50,H4,> 120 µM (not active)
Oc1ccc(NCc2ccc(OCc3ccccc3)cc2)cc1,IC50,[3],60.5 µM (active)
COc1cc(/C=C/C(=O)OCC(=O)c2ccc(OC(F)F)cc2)ccc1O,IC50,[3],64 µM (active)
Nc1cc(Cc2ccccc2)ccc1O,IC50,[3],18 µM (active)
C/C(=N\N1C(=O)CSC1=S)c1ccc(Br)cc1,EC50,[1],> 160 µM (inactive)
same,EC50,[2],> 38 µM (not active)
Cc1cccc(/C=N/c2ccc3c4c(cccc24)CC3)c1O,IC50,[3],20 µM (active)
COc1cccc(/C=N/NC(=O)CCn2nnc3ccccc32)c1,EC50,[4],> 120 µM (not active)
same,EC50,[5],> 120 µM (not active)
same,EC50,H4,> 120 µM (not active)
COC(=O)/C(=N\Nc1ccc(Cl)cc1)Sc1nnc(-c2ccc(OC)cc2)n1C,EC50,[1],> 160 µM (inactive)
same,EC50,[2],> 38 µM (not active)
O=C1c2ccccc2C(Cc2ccncc2)(Cc2ccncc2)c2ccccc21,AC50,Cytochrome P450 1A2,39.8 µM (inconclusive)
same,AC50,Cytochrome P450 2C9,20 µM (inconclusive)

# — ChEMBL document CHEMBL1201862, “PubChem BioAssay data set” (2004)
